Source: patent US20060008512A1, “Composition and methods for improved animal performance” (priority 2004, published 2006)
Like-named read-outs stand apart in the source and are kept apart here.

Assays:
[1] = tested on: 66-week-old caged laying hens; details: cited from earlier work
[2] = tested on: Hy-Line W-36 White Leghorn hens; details: for Ovary Weight per hen / Oviduct Weight per hen: day 34
Source text: Experiment 3. […] The photoperiod serves as the primary environmental signal that regulates reproductive function in many avian species. Increasing the photoperiod promotes maturation of the gonads and reproductive tract, whereas reducing the photoperiod causes the gonads and reproductive tract to regress and molting to occur.

[3] = tested on: broiler chickens; details: 1 mg/kg of diet, 0 to 28 days of age, cited from earlier work
[4] = tested on: fine-wool Merino wethers; details: 60 mg thyroxine implants in summer and autumn; cited from earlier work
[5] = tested on: Cobb broiler breeder hens and roosters
Source text: Molting Cobb Broiler Breeder Hens and Roosters with Dietary Thyroxine.

[6] = tested on: fast-growing broiler chickens; details: low ambient temperature and pelleted feed; untreated 21.5%; cited from earlier work

Compound: N[C@@H](Cc1cc(I)c(Oc2cc(I)c(O)c(I)c2)c(I)c1)C(=O)O [L-thyroxine, 3,5,3′,5′-tetraiodo-L-thyronine]
- Days to target body weight (30% loss) ([1]; 1-day fast or no fast followed by corn diet with or without thyroxine): 28 days
- Days to target body weight (30% loss) ([1]; 1-day feed withdrawal, then grape pomace diet plus 10 mg thyroxine/kg): 16 days
- Egg production from 66 to 98 weeks ([1]; grape pomace diet plus thyroxine): 64.7%
- Hens molted ([2]; 20 mg T4/kg groups, either chamber): None of the hens
- Time to significantly reduced egg production ([2]; 20 mg T4/kg, 17 hr light): ≤ 8 days
- Body weight (BW) ([2]; 20 mg/kg of feed 12 d from day 13, 8 hr light, Day 12 (pre-molt)): 1492 g
- Body weight change (% BWC) ([2]; 20 mg/kg of feed 12 d from day 13, 8 hr light, Day 22): −12.8%
- Body weight (BW) ([2]; 20 mg/kg of feed 12 d from day 13, 8 hr light, Day 22 (end of molt)): 1301 g
- Body weight change (% BWC) ([2]; 20 mg/kg of feed 12 d from day 13, 8 hr light, Day 34): −10.7%
- Body weight (BW) ([2]; 20 mg/kg of feed 12 d from day 13, 8 hr light, Day 34 (final)): 1332 g
- Body weight (BW) ([2]; 20 mg/kg of feed 12 d from day 13, 17 hr light, Day 12 (pre-molt)): 1572 g
- Body weight change (% BWC) ([2]; 20 mg/kg of feed 12 d from day 13, 17 hr light, Day 22): −13.3%
- Body weight (BW) ([2]; 20 mg/kg of feed 12 d from day 13, 17 hr light, Day 22 (end of molt)): 1363 g
- Body weight change (% BWC) ([2]; 20 mg/kg of feed 12 d from day 13, 17 hr light, Day 34): −7.6%
- Body weight (BW) ([2]; 20 mg/kg of feed 12 d from day 13, 17 hr light, Day 34 (final)): 1453 g
- Ovary Weight per hen ([2]; 20 mg/kg of feed, 8 hr light): 7.91 g
- Oviduct Weight per hen ([2]; 20 mg/kg of feed, 8 hr light): 18.64 g
- Ovary Weight per hen ([2]; 20 mg/kg of feed, 17 hr light): 31.41 g
- Oviduct Weight per hen ([2]; 20 mg/kg of feed, 17 hr light): 43.81 g
- Hens molted fully ([2]; 40 mg T4/kg, 8 hr light, 7/12): 58%
- Hens molted fully ([2]; 40 mg T4/kg, 17 hr light): 100%
- Time to significantly reduced egg production ([2]; 40 mg T4/kg, 17 hr light): ≤ 6 days
- Body weight (BW) ([2]; 40 mg/kg of feed 12 d from day 13, 8 hr light, Day 12 (pre-molt)): 1488 g
- Body weight change (% BWC) ([2]; 40 mg/kg of feed 12 d from day 13, 8 hr light, Day 22): −17.9%
- Body weight (BW) ([2]; 40 mg/kg of feed 12 d from day 13, 8 hr light, Day 22 (end of molt)): 1222 g
- Body weight change (% BWC) ([2]; 40 mg/kg of feed 12 d from day 13, 8 hr light, Day 34): −12.6%
- Body weight (BW) ([2]; 40 mg/kg of feed 12 d from day 13, 8 hr light, Day 34 (final)): 1300 g
- Body weight (BW) ([2]; 40 mg/kg of feed 12 d from day 13, 17 hr light, Day 12 (pre-molt)): 1436 g
- Body weight change (% BWC) ([2]; 40 mg/kg of feed 12 d from day 13, 17 hr light, Day 22): −18.0%
- Body weight (BW) ([2]; 40 mg/kg of feed 12 d from day 13, 17 hr light, Day 22 (end of molt)): 1178 g
- Body weight change (% BWC) ([2]; 40 mg/kg of feed 12 d from day 13, 17 hr light, Day 34): −14.8%
- Body weight (BW) ([2]; 40 mg/kg of feed 12 d from day 13, 17 hr light, Day 34 (final)): 1224 g
- Ovary Weight per hen ([2]; 40 mg/kg of feed, 8 hr light): 9.32 g
- Oviduct Weight per hen ([2]; 40 mg/kg of feed, 8 hr light): 14.25 g
- Ovary Weight per hen ([2]; 40 mg/kg of feed, 17 hr light): 3.82 g
- Oviduct Weight per hen ([2]; 40 mg/kg of feed, 17 hr light): 8.03 g
- Mortality ([2]; 20 and 40 mg T4/kg, 12 days): No mortality occurred
- Time to significantly reduced egg production ([2]; 20 and 40 mg T4/kg, 8 hr light): ≤ 4 days
- Serum thyroxine level ([3]; first experiment (control 41.1)): 88.7 ng/mL
- Serum thyroxine level ([3]; second experiment (control 21.1)): 69.3 ng/mL
- Increase in annual fleece weight [4]: 34%
- Toxicity to broiler breeder males ([5]; 25 mg/kg diet or more): toxic to broiler breeder males (death)
- Testes of broiler breeder males ([5]; 25 or 40 mg T4/kg diet): testes shown to enlarge
- Adverse sign in roosters ([5]; 25 or 40 mg/kg diet): “stroke blood” from the nostrils
- Time on treated feed until hens reduced feed intake, ceased egg production and began to molt feathers ([5]; Cobb broiler breeder hens, 25 or 40 ppm): 15 to 17 days
- Tolerance of males for thyroxine (T4) alone ([5]; excess causes mortality): < 25 mg/kg diet
- Ascites [6]: 7%
